Laboratory results: patent publication US7759366B2 (Sanofi-Aventis, priority 2006, dated 2010)
Where two headings read alike, the source gives them in different places.

Target: hCB1R (Homo sapiens, UniProt P21554)
Assay: Binding to the CB1 receptor ([3H]-SR141716A displacement)
Procedure: Binding to the CB1 Receptor:
Test compounds: The compounds (3 μl, 10 mM, 100% DMSO), pipetted into 96-well PP microtiter plates, were diluted with 27 μl of 100% DMSO (dimethyl sulfoxide). Proceeding from this solution, further 3-fold dilution steps were undertaken by transferring 10 μl in each case to a new PP microtiter plate and adding a further 20 μl of 100% DMSO. In each case 6 μl of these solutions were transferred into new 96-well PP microtiter plates and made up with 144 μl of assay buffer. The end concentrations ranged from 10 μM to 0.005 μM. Negative control: AM 251, dissolved in assay buffer with 1% DMSO, was added to the dilution series in the microtiter plates as a control. The end concentration was 1 μM. Blank control: assay buffer with 1% DMSO was added to the dilution series of the microtiter plates as a blank control.
Summary of the Assay Parameters:
High control: ^3H binding without addition of the compound
Low control: ^3H binding in the presence of 1 μM AM 251
The values were calculated using the corrected raw data.
The values reported were obtained as average values of a double determination. The IC50 values were calculated from the measurements with the program Xlfit, formula 205. Ki values were obtained from the IC50 and Kd values utilizing the Cheng-Prusoff equation: […]
Literature: Cheng, Y.-C., and Prusoff, W. H. (1973) Biochem. Pharmacol 22, 3099-3108

[1] = CHO-K1/cannabinoid CB1 protein 2 μg/well, [3H]-SR141716A 0.5 nM, Ki from IC50 by Cheng-Prusoff, average of double determination, read-out: hCB1R, binding Ki

Chain of hCB1R (P21554 whole entry): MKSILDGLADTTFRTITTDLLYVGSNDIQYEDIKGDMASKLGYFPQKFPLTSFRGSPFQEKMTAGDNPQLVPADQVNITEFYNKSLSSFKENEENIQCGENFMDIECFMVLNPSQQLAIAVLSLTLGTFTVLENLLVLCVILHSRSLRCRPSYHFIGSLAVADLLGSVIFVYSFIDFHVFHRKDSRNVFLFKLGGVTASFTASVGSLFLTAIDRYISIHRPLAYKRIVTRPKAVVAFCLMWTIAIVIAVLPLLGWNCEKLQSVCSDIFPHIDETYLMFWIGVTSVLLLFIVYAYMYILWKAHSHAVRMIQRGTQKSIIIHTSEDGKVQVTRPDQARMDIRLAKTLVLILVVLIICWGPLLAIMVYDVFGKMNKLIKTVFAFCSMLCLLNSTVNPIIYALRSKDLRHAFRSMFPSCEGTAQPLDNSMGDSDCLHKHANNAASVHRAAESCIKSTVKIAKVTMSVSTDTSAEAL

Row | Ki [1] [nM] | Structure (SMILES) | Ki [nM]
1 |  | CC1(C)C(=O)N(c2ccc(C#N)c(C(F)(F)F)c2)C(=O)N1Cc1ccccc1Nc1ccc([N+](=O)[O-])cc1 [Example 112, 4-{4,4-dimethyl-3-[2-(4-nitrophenylamino)benzyl]-2,5-dioxoimidazolidin-1-yl}-2-trifluoromethylbenzonitrile] | 1
2 |  | CC1(C)C(=O)N(c2ccc(C#N)c(C(F)(F)F)c2)C(=O)N1Cc1ccccc1Nc1ccc(C=O)cc1 [Example 120, 4-{3-[2-(4-formylphenylamino)benzyl]-4,4-dimethyl-2,5-dioxoimidazolidin-1-yl}-2-trifluoromethylbenzonitrile] | 5
3 |  | CC(C)(C)OC(=O)c1ccc(Nc2cc(C#N)ccc2CN2C(=O)N(c3ccc(C#N)c(C(F)(F)F)c3)C(=O)C2(C)C)cc1 [Example 126, tert-Butyl 4-{5-cyano-2-[3-(4-cyano-3-trifluoromethylphenyl)-5,5-dimethyl-2,4-dioxoimidazolidin-1-ylmethyl]phenylamino}benzoate] | 23
4 |  | CC1(C)C(=O)N(c2ccc(C#N)c(C(F)(F)F)c2)C(=O)N1Cc1ccccc1Nc1ccc(Oc2ccccc2)cc1 [Example 128, 4-{4,4-dimethyl-2,5-dioxo-3-[2-(4-phenoxyphenylamino)benzyl]-imidazolidin-1-yl}-2-trifluoromethylbenzonitrile] | 2
5 |  | COC(=O)c1cc(Nc2ccccc2CN2C(=O)N(c3ccc(C#N)c(C(F)(F)F)c3)C(=O)C2(C)C)ccc1OC [Example 129, methyl 5-{2-[3-(4-cyano-3-trifluoromethylphenyl)-5,5-dimethyl-2,4-dioxoimidazolidin-1-ylmethyl]phenylamino}-2-methoxybenzoate] | 10
6 |  | CC1(C)C(=O)N(c2ccc(C#N)c(C(F)(F)F)c2)C(=O)N1Cc1ccc(C#N)cc1Nc1ccc(C(=O)O)cc1 [Example 132, 4-{5-cyano-2-[3-(4-cyano-3-trifluoromethylphenyl)-5,5-dimethyl-2,4-dioxoimidazolidin-1-ylmethyl]phenylamino}benzoic acid] | 6
7 |  | CC1(C)C(=O)N(c2ccc(F)c(C(F)(F)F)c2)C(=O)N1Cc1ccccc1Nc1ccc(C#N)cc1 [Example 134, 4-{2-[3-(4-fluoro-3-trifluoromethylphenyl)-5,5-dimethyl-2,4-dioxoimidazolidin-1-ylmethyl]phenylamino}benzonitrile] | 4
8 |  | CC1(C)C(=O)N(c2ccc(C#N)c(C(F)(F)F)c2)C(=O)N1Cc1ccccc1Nc1ccc(C(=O)NCCO)cc1 [Example 149, 4-{2-[3-(4-cyano-3-trifluoromethylphenyl)-5,5-dimethyl-2,4-dioxoimidazolidin-1-ylmethyl]phenylamino}-N-(2-hydroxyethyl)benzamide] | 6
9 |  | CC1(C)C(=O)N(c2ccc(C#N)c(C(F)(F)F)c2)C(=O)N1Cc1ccccc1Nc1cccc(S(N)(=O)=O)c1 [Example 153, 3-{2-[3-(4-Cyano-3-trifluoromethylphenyl)-5,5-dimethyl-2,4-dioxoimidazolidin-1-ylmethyl]phenylamino}benzenesulfonamide] | 20
10 |  | COC(=O)c1ccc(Nc2cc(F)ccc2CN2C(=O)N(c3ccc(C#N)c(C(C)(C)C)c3)C(=O)C2(C)C)cc1 [Example 157, methyl 4-{2-[3-(3-tert-butyl-4-cyanophenyl)-5,5-dimethyl-2,4-dioxoimidazolidin-1-ylmethyl]-5-fluorophenylamino}benzoate] | 5
11 |  | COC(=O)c1ccc(Nc2cc(F)ccc2CN2C(=O)N(c3ccc(C#N)c(C)c3)C(=O)C2(C)C)cc1 [Example 160, Methyl 4-{2-[3-(4-cyano-3-methylphenyl)-5,5-dimethyl-2,4-dioxoimidazolidin-1-ylmethyl]-5-fluorophenylamino}benzoate] | 3
12 |  | CC1(C)C(=O)N(c2ccc(C#N)c(C(F)(F)F)c2)C(=O)N1Cc1ccccc1Nc1ccc(C(=O)NCC(N)=O)cc1 [Example 161, N-carbamoylmethyl-4-{2-[3-(4-cyano-3-trifluoromethylphenyl)-5,5-dimethyl-2,4-dioxoimidazolidin-1-ylmethyl]phenylamino}benzamide] | 8
13 |  | CCOC(=O)c1ccc(Nc2cc(C(F)(F)F)ccc2CN2C(=O)N(c3ccc(C#N)c(C(F)(F)F)c3)C(=O)C2(C)C)cc1 [Example 165, ethyl 4-{2-[3-(4-cyano-3-trifluoromethylphenyl)-5,5-dimethyl-2,4-dioxoimidazolidin-1-ylmethyl]-5-trifluoromethylphenylamino}benzoate] | 16
14 | 7 | COC(=O)c1ccc(Nc2cc(F)ccc2CN2C(=O)N(c3ccnc(C(C)(C)C)c3)C(=O)C2(C)C)cc1 [Example 167, Methyl 4-{2-[3-(2-tert-butylpyridin-4-yl)-5,5-dimethyl-2,4-dioxoimidazolidin-1-ylmethyl]-5-fluorophenylamino}benzoate] | 
15 | 113 | CC1(C)C(=O)N(c2ccc(F)c(C(F)(F)F)c2)C(=O)N1Cc1ccc(F)cc1Nc1ccc(C(=O)NC[C@H](O)[C@@H](O)[C@H](O)[C@H](O)CO)cc1 [Example 170, 4-{5-Fluoro-2-[3-(4-fluoro-3-trifluoromethylphenyl)-5,5-dimethyl-2,4-dioxoimidazolidin-1-ylmethyl]phenylamino}-N-((2S,3R,4R,5R)-2,3,4,5,6-pentahydroxyhexyl)benzamide] | 
16 | 120 | CC1(C)C(=O)N(c2ccc(F)c(C(F)(F)F)c2)C(=O)N1Cc1ccc(F)cc1Nc1ccc(C(=O)N2CCC(O)CC2)cc1 [Example 171, 1-{4-Fluoro-2-[4-(4-hydroxypiperidine-1-carbonyl)phenylamino]benzyl}-3-(4-fluoro-3-trifluoromethylphenyl)-5,5-dimethylimidazolidine-2,4-dione] | 
17 | 8 | CC1(C)C(=O)N(c2ccc(F)c(C(F)(F)F)c2)C(=O)N1Cc1ccc(F)cc1Nc1ccc(C(=O)N2CCNCC2)cc1 [Example 172, 1-{4-Fluoro-2-[4-(piperazine-1-carbonyl)phenylamino]benzyl}-3-(4-fluoro-3-trifluoromethylphenyl)-5,5-dimethylimidazolidine-2,4-dione] | 
18 |  | CC1(C)C(=O)N(c2ccc(C#N)c(C(F)(F)F)c2)C(=O)N1Cc1ccccc1Nc1ccc(C(=O)NCCCS(C)(=O)=O)cc1 [Example 173, 4-{2-[3-(4-Cyano-3-trifluoromethylphenyl)-5,5-dimethyl-2,4-dioxoimidazolidin-1-ylmethyl]phenylamino}-N-(3-methanesulfonylpropyl)benzamide] | 34

Row | Structure (SMILES) | Ki [1] [nM] | Ki [nM]
19 | CCNS(=O)(=O)c1ccc(Nc2ccccc2CN2C(=O)N(c3ccc(C#N)c(C(F)(F)F)c3)C(=O)C2(C)C)cc1 [Example 151, 4-{2-[3-(4-cyano-3-trifluoromethylphenyl)-5,5-dimethyl-2,4-dioxoimidazolidin-1-ylmethyl]phenylamino}-N-ethylbenzenesulfonamide] | 155 | 
20 | CC1(C)C(=O)N(c2ccc(C#N)c(C(F)(F)F)c2)C(=O)N1Cc1ccccc1Nc1ccc(C(=O)NN2CCCCC2)cc1 [Example 174, 4-{2-[3-(4-Cyano-3-trifluoromethylphenyl)-5,5-dimethyl-2,4-dioxoimidazolidin-1-ylmethyl]phenylamino}-N-piperidin-1-ylbenzamide] | 144 | 
21 | CC1(C)C(=O)N(c2ccc(C#N)c(C(F)(F)F)c2)C(=O)N1Cc1ccccc1Nc1ccc(N(S(C)(=O)=O)S(C)(=O)=O)cc1 [Example 176] | 130 | 
